Converted amounts (≈) assume the structure as drawn. Like-named read-outs stand apart in the source and are kept apart here.
Experiments:
[1] = biological target: T1, EGFR (Homo sapiens, UniProt P00533); assay: EGFR receptor phosphorylation in A431 cells (immunoblot); assay type: cell-based; design: They also repressed EGF-dependent phosphorylation of EGFR in A431 cells; endogenous in cells; host or cells: A431
Target sequence in this assay (P00533 25-1210): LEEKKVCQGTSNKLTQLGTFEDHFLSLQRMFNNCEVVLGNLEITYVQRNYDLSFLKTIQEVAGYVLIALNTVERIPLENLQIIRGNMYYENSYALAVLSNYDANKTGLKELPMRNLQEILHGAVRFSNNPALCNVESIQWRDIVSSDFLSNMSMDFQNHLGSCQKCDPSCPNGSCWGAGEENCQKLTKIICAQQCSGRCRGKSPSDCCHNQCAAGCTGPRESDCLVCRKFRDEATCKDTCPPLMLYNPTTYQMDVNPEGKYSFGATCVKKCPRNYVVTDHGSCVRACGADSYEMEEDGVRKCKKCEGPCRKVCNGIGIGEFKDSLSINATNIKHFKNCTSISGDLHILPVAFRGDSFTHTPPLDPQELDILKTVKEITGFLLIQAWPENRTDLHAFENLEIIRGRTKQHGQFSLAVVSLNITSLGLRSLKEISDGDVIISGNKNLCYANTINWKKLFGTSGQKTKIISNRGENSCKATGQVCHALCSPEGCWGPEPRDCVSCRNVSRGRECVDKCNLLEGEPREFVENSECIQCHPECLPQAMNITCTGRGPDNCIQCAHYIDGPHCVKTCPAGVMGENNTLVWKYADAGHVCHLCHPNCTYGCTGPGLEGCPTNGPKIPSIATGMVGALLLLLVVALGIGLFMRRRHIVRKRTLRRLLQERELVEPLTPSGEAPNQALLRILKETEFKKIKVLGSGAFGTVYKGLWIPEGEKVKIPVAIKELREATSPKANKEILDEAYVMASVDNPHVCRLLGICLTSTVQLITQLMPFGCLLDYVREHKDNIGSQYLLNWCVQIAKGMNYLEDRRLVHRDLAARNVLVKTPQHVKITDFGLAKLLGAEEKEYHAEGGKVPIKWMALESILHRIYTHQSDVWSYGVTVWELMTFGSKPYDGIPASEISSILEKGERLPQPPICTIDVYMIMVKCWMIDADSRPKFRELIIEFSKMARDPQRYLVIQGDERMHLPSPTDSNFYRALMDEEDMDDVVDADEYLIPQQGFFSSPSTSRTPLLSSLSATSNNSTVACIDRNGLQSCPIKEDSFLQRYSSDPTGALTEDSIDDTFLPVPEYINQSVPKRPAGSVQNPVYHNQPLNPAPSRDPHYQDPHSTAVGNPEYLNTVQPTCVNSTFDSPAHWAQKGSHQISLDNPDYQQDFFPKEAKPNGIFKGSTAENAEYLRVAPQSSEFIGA

[2] = biological target: T2, recombinant cytoplasmic domain of HER-2 (Homo sapiens, UniProt P04626); assay: Cell-free autophosphorylation kinase assay (ELISA), HER-2; assay type: biochemical
T2 construct: In a cell-free autophosphorylation assay using the recombinant cytoplasmic domain of HER-2

[3] = test system: SK-Br-3 cells; assay: Cell proliferation assay (SRB), SK-Br-3; assay type: cell-based; details: for IC50: Homo sapiens, SK-BR-3, 48 h, read-out: CELL IC50 SKBr3
[4] = test system: SW620 cells; assay: Cell proliferation assay (SRB), SW620; assay type: cell-based; details: for IC50: Homo sapiens, SW-620, 48 h, read-out: CELL IC50 SW620
[5] = test system: BT474 cells; assay: Cell proliferation assay (SRB), BT474; assay type: cell-based, human; details: for IC50: Homo sapiens, BT-474, 144 h, read-out: CELL IC50 BT474
[6] = biological target: T3, Her-2 (Homo sapiens, UniProt P04626); assay: Her-2 receptor phosphorylation in BT474 cells (immunoblot); assay type: cell-based
T3 construct: For Her-2 and EGFR phosphorylation assays, cells (BT474 and A431, respectively) were incubated with various concentrations of compound; endogenous in cells; host or cells: BT474

[7] = test system: 3T3 cells; assay: Cell proliferation assay (SRB), 3T3; assay type: cell-based, mouse; details: for IC50: Mus musculus
[8] = test system: MDA-MB-435 cells; assay: Cell proliferation assay (SRB), MDA-MB-435; assay type: cell-based; details: for IC50: Homo sapiens, MDA-MB-435, 48 h, read-out: CELL IC50 MDA-MB-435
[9] = test system: A431 cells; assay: Cell proliferation assay (SRB), A431; assay type: cell-based; details: for IC50: Homo sapiens, A-431, 48 h, read-out: CELL IC50 A431
[10] = biological target: T1, EGFR; assay: Cell-free autophosphorylation kinase assay (ELISA), EGFR; assay type: biochemical; design: Purified recombinant C-terminal fragment of each enzyme is incubated with ATP; details: read-out: Enzyme IC50 EGFR (converted)
Target sequence in this assay (P00533 669-1210 limits assumed): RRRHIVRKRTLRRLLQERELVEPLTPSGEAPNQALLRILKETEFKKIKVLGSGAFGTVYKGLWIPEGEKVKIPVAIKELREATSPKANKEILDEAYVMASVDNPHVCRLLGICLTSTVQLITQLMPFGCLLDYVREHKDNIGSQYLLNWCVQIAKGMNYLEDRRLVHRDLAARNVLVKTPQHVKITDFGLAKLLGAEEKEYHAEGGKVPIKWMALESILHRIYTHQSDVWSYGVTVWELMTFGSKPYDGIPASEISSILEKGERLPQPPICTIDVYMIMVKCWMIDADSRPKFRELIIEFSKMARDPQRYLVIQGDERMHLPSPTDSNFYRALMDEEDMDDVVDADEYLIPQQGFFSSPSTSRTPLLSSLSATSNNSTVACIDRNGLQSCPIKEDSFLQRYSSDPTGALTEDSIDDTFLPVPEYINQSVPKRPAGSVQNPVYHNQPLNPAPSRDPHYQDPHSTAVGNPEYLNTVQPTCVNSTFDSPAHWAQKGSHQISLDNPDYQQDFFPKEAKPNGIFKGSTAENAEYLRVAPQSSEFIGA

[11] = biological target: mouse fibroblast cell line transfected with the HER-2 oncogene (3T3/neu) (UniProt P04626, cells depend on it, species not given); assay: Cell proliferation assay (SRB), 3T3/neu; assay type: cell-based
[12] = test system: HER-2 overexpressing human xenograft models; assay: HER-2 overexpressing human xenograft models (overall); assay type: in vivo, mouse; details: mouse, in vivo
[13] = test system: xenografts of 3T3/neu cells; assay: 3T3/neu tumor xenograft in nude mice; assay type: in vivo, mouse; details: day 21
[14] = test system: BT474 xenografts; assay: BT474 tumor xenograft in nude mice; assay type: in vivo, mouse; details: day 21
[15] = Her-2 phosphorylation, 3 hours at 37° C., immunoblot, read-out: IC50 receptor phosphorylation BT474 (converted)
[16] = NIH3T3, 48 h, EGFR −, Her-2 −, 2 days, SRB, read-out: CELL IC50 3T3
[17] = EGFR −, Her-2 +++, 2 days, SRB, read-out: CELL IC50 3T3/NEU (converted)

Compound	IC50 ([3]; EGFR −, Her-2 +++, 2 days, SRB) [µg/mL]	IC50 ([4]; EGFR −, Her-2 −, 2 days, SRB) [µg/mL]	IC50 [6, 15] [nM]	IC50 ([8]; EGFR −, Her-2 −, 2 days, SRB) [µg/mL]	IC50 ([9]; EGFR +++, Her-2 +, 2 days, SRB) [µg/mL]	GI50 [11, 17] [nM]	also measured
CCOc1cc2ncc(C#N)c(Nc3ccc(OCc4ccccn4)c(Cl)c3)c2cc1NC(=O)/C=C/CN(C)C [Example 2, (E)-N-{4-[3-chloro-4-(2-pyridinylmethoxy)anilino]-3-cyano-7-ethoxy-6-quinolinyl}-4-(dimethylamino)-2-butenamide]							inhibition of the HER-2 enzyme (in words) [2]: potent inhibitors; IC50 [3]: 0.001 µg/mL (≈ 0.0018 µM); IC50 [4]: 0.44 µg/mL (≈ 0.79 µM); IC50 [5]: 0.0013 µg/mL (≈ 0.00233 µM); MED in the HER-2 overexpressing human xenograft models [12]: ~10 mg/kg/day; tumor growth inhibition ([13]; 20 mg/kg/day PO): 53%; tumor growth inhibition ([13]; 40 mg/kg/day PO): 95%; tumor growth inhibition ([13]; 80 mg/kg/day PO): 98%; IC50 ([7]; NIH3T3, 48 h, read-out: CELL IC50 3T3): 0.39 µg/mL; IC50 ([7]; NIH3T3, read-out: IC50 isogenic untransfected cells (3T3)): 683 to 906 nM; IC50 [8]: 0.44 µg/mL (≈ 0.79 µM); IC50 [9]: 0.045 µg/mL (≈ 0.0808 µM); maximum tumor growth inhibition ([14]; 10 mg/kg/day PO): 76%; maximum tumor growth inhibition ([14]; 40 mg/kg/day PO): 95%; GI50 ([11]; read-out: CELL IC50 3T3/NEU, mouse fibroblast cell line transfected with the her-2 oncogene (3t3/neu)): 3.23 nM
CCOc1cc2ncc(C#N)c(Nc3ccc(F)c(Cl)c3)c2cc1NC(=O)C=CCN(C)C [Example 20, 4-Dimethyl-but-2-enoic acid [4-(3-chloro-4-fluoro-phenylamino)-3-cyano-7-ethoxy-quinolin-6-yl]-amide]							inhibition of the HER-2 enzyme (in words) [2]: is not; Enzyme IC50 HER-2 ([2]; autophosphorylation, ELISA): 0.58 µg/mL; CELL IC50 SKBr3 ([3]; EGFR −, Her-2 +++, 2 days, SRB): 0.0071 µg/mL; CELL IC50 SW620 ([4]; EGFR −, Her-2 −, 2 days, SRB): 0.32 µg/mL; CELL IC50 BT474 ([5]; EGFR +, Her-2 +++, 6 days, SRB): 0.020 µg/mL; IC50 receptor phosphorylation BT474 ([6]; Her-2 phosphorylation, 3 hours at 37° C., immunoblot): 0.080 µg/mL (≈ 0.171 µM); CELL IC50 3T3 ([7]; EGFR −, Her-2 −, 2 days, SRB): 0.26 µg/mL; CELL IC50 MDA-MB-435 ([8]; EGFR −, Her-2 −, 2 days, SRB): 0.34 µg/mL
COc1cc2ncc(C#N)c(Nc3ccc(Sc4nccn4C)c(Cl)c3)c2cc1NC(=O)/C=C/CN(C)C [Example 37, (2E)-N-[4-({3-chloro-4-[(1-methyl-1H-imidazol-2-yl)sulfanyl]phenyl}amino)-3-cyano-7-methoxy-6-quinolinyl]-4-(dimethylamino)-2-butenamide]	0.0004 (≈ 0.00073 µM)	0.43 (≈ 0.785 µM)	< 1820	0.43 (≈ 0.785 µM)		36.5	IC50 [9]: 0.02 µg/mL (≈ 0.0365 µM)
COc1cc2ncc(C#N)c(Nc3ccc(Sc4nccs4)c(Cl)c3)c2cc1NC(=O)/C=C/CN(C)C [Example 40, (2E)-N-(4-{[3-chloro-4-(1,3-thiazol-2-ylsulfanyl)phenyl]amino}-3-cyano-7-methoxy-6-quinolinyl)-4-(dimethylamino)-2-butenamide]	0.0007 (≈ 0.00127 µM)	1.13 (≈ 2.05 µM)	18100 to 90700	0.33 (≈ 0.599 µM)		3.63	IC50 [9]: 0.017 µg/mL (≈ 0.0308 µM)
CCOc1cc2ncc(C#N)c(Nc3ccc(Sc4nc(-c5ccccc5)cs4)c(Cl)c3)c2cc1NC(=O)/C=C/CN(C)C [Example 72, (E)-N-(4-{3-chloro-4-[(4-phenyl-1,3-thiazol-2-yl)sulfanyl]anilino}-3-cyano-7-ethoxy-6-quinolinyl)-4-(dimethylamino)-2-butenamide]	0.006 (≈ 0.00936 µM)	0.54 (≈ 0.842 µM)		0.18 (≈ 0.281 µM)	0.24 (≈ 0.374 µM)	31.2	
CCOc1cc2ncc(C#N)c(Nc3ccc(Sc4nc(C)cc(C)n4)c(Cl)c3)c2cc1[N+](=O)[O-] [Example 74, 4-{3-chloro-4-[(4,6-dimethyl-2-pyrimidinyl)sulfanyl]anilino}-7-ethoxy-6-nitro-3-quinolinecarbonitrile]	> 5	> 5		4.1 (≈ 8.09 µM)	> 5	> 9860	
(E)-N-{4-[3-chloro-4-(1H-imidazol-1-yl)anilino]-3-cyano-7-methoxy-6-quinolinyl}-azol-1-yl)anilino]-4-(dimethylamino)-2-)anilino-2-butenamide [Example 43]							CELL IC50 SKBr3 ([3]; EGFR −, Her-2 +++, 2 days, SRB): 0.32 µg/mL; CELL IC50 SW620 ([4]; EGFR −, Her-2 −, 2 days, SRB): 1.45 µg/mL; CELL IC50 MDA-MB-435 ([8]; EGFR −, Her-2 −, 2 days, SRB): 0.57 µg/mL; CELL IC50 A431 ([9]; EGFR +++, Her-2 +, 2 days, SRB): 0.51 µg/mL; CELL IC50 3T3/NEU ([11]; EGFR −, Her-2 +++, 2 days, SRB): 1.46 µg/mL

Second part, led by results:

IC50 ([3]; EGFR −, Her-2 +++, 2 days, SRB) [µg/mL]	IC50 ([4]; EGFR −, Her-2 −, 2 days, SRB) [µg/mL]	IC50 [6, 15] [nM]	IC50 ([8]; EGFR −, Her-2 −, 2 days, SRB) [µg/mL]	IC50 ([9]; EGFR +++, Her-2 +, 2 days, SRB) [µg/mL]	GI50 [11, 17] [nM]	Compound	also measured
0.0015 (≈ 0.0027 µM)	0.24 (≈ 0.432 µM)	13.5	0.47 (≈ 0.845 µM)	0.062 (≈ 0.111 µM)	5.22	CCOc1cc2ncc(C#N)c(Nc3ccc(OCc4ccccc4)c(Cl)c3)c2cc1NC(=O)/C=C/CN(C)C [Example 1, (E)-N-{4-[4-(benzyloxy)-3-chloroanilino]-3-cyano-7-ethoxy-6-quinolinyl}-4-(dimethylamino)-2-butenamide]	IC50 receptor phosphorylation A431 ([1]; EGFR phosphorylation, 3 hours at 37° C., immunoblot): 0.0031 µg/mL (≈ 0.00557 µM); IC50 ([1]; span over the three compounds, read-out: EGF-dependent phosphorylation of EGFR in A431 cells IC50): 3 to 7 nM; inhibition of the HER-2 enzyme (in words) [2]: potent inhibitors; IC50 ([2]; HER-2 enzyme activity reduced by 50% (IC50), span over the three inhibitors): 33 to 65 nM; IC50 ([2]; autophosphorylation, ELISA, read-out: Enzyme IC50 HER-2 (converted)): 64.7 nM; IC50 ([5]; EGFR +, Her-2 +++, 6 days, SRB): 0.0014 µg/mL (≈ 0.00252 µM); IC50 ([6]; ligand-independent receptor phosphorylation decreased by 50% (IC50) in BT474 cells, span over the three compounds): 5 to 23 nM; IC50 [7, 16]: 0.38 µg/mL; IC50 ([7]; NIH3T3, span over the three compounds, read-out: IC50 isogenic untransfected cells (3T3)): 683 to 906 nM; IC50 [10]: 50.4 nM
0.005 (≈ 0.00797 µM)	0.57 (≈ 0.909 µM)	79700 to 797000	0.23 (≈ 0.367 µM)	0.162 (≈ 0.258 µM)	44.6	COc1cc2ncc(C#N)c(Nc3ccc(Sc4nc(-c5ccccc5)cs4)c(Cl)c3)c2cc1NC(=O)/C=C/CN(C)C [Example 58, (E)-N-(4-{3-chloro-4-[(4-phenyl-1,3-thiazol-2-yl)sulfanyl]anilino}-3-cyano-7-methoxy-6-quinolinyl)-4-(dimethylamino)-2-butenamide]	
0.98 (≈ 2.05 µM)	1.36 (≈ 2.85 µM)		1.3 (≈ 2.73 µM)	0.76 (≈ 1.59 µM)	4440	CCOc1cc2ncc(C#N)c(Nc3ccc(Sc4nc(C)cc(C)n4)c(Cl)c3)c2cc1N [Example 75, 6-amino-4-{3-chloro-4-[(4,6-dimethyl-2-pyrimidinyl)sulfanyl]anilino}-7-ethoxy-3-quinolinecarbonitrile]	
0.004 (≈ 0.00712 µM)	0.25 (≈ 0.445 µM)	2.67	0.77 (≈ 1.37 µM)		6.94	CCOc1cc2ncc(C#N)c(Nc3ccc(OCc4cccs4)c(Cl)c3)c2cc1NC(=O)/C=C/CN(C)C [Example 76, (2E)-N-{4-[3-chloro-4-(2-thienylmethoxy)anilino]-3-cyano-7-ethoxy-6-quinolinyl}-4-(dimethylamino)-2-butenamide]	IC50 ([5]; EGFR +, Her-2 +++, 6 days, SRB): 0.003 µg/mL (≈ 0.00534 µM); IC50 [7, 16]: 0.41 µg/mL
